Values quoted from earlier work in patent US10864304B2, “Anti-infective antimicrobial-containing biomaterials” (ATRIUM MEDICAL CORPORATION, priority 2009, dated 2020).

Test system: bacteria
Conditions: previously reported (K. C. Chaw et al. 2005)

## [Ag] [silver]
  amount of silver needed to produce an antimicrobial effect: ~50 ppb
